Consider 1 compound from patent US5858995A, “Benzofuran derivatives useful as inhibitors of bone resorption” (Fujisawa Pharmaceutical Co., Ltd., priority 1994, dated 1999).

For the test, the system named is PTH-induced bone resorption (calvariae). Briefly: Bone organ culture: inhibition of PTH-induced bone resorption in rat calvariae. The note with it: Compound dose = 1 × 10^-5 (M); calvariae from Wistar rats, 10^-8 M human PTH (1-34); calcium in medium after six days. It is filed as cell-based. On the procedure: Test (Bone organ culture)
Calvariae from Wistar rats were excised and cultured in wells of 12-well culture plates containing 2 ml of Dulbecco's modified minimum essential medium supplemented with 10% fetal bovine serum and 10^-8 M human parathyroid hormone fragment (1-34) [PTH] in the presence of the test compound. In control dishes, PTH was not added. Control and PTH control were exposed to an equivalent concentration of the vehicle. Six days later, the concentration of calcium in the medium was measured by methylxylenol blue method and the percentage of inhibition of PTH-induced bone resorption was calculated according to following formula. [formula] Test Result

Regarding `Cc1oc2c(NC(=O)c3c(Cl)cccc3Cl)cccc2c1C` [Test Compound (1), 7-(2,6-Dichlorobenzoylamino)-2,3-dimethylbenzo[b]furan], the “Inhibition (%) of PTH-induced bone resorption” value was 100%.
